One block for each molecule: values may come before it.
Legend:
[1] = test system: ASCT2; settings: cited from earlier work
[2] = molecular target: T1, ASCT2 (Rattus norvegicus, UniProt D3ZJ25); test: ASCT2-mediated 3H-glutamine uptake in C6 cells; type: cell-based
T1 sequence (D3ZJ25 1-555): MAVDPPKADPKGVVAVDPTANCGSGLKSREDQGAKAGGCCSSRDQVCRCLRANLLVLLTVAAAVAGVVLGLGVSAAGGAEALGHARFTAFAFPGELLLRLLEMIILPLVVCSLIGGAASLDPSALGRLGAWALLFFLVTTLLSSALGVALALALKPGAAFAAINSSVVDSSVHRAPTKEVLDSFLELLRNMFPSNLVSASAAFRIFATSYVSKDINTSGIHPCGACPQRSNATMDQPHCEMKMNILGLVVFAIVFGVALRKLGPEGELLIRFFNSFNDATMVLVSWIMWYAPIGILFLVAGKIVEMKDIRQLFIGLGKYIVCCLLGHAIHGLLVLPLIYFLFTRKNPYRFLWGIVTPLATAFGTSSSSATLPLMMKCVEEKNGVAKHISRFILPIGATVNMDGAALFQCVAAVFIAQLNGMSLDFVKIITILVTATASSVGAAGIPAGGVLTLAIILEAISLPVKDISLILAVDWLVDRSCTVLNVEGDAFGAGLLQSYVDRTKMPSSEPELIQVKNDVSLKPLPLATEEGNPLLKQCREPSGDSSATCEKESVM

[3] = molecular target: ASCT2; settings: read-out: apparent affinity; inhibitor of ASCT2; cited from earlier work

Molecule: N[C@@H](CCC(=O)Nc1ccc([N+](=O)[O-])cc1)C(=O)O [Compound 1, L-γ-glutamyl-p-nitroanilide]
potency against ASCT2 [1]: modest potency in the low millimolar range

IC50 [2]: 9 µM
Molecule: Cc1cccc(COc2ccccc2CN(CC[C@H](N)C(=O)O)Cc2ccccc2OCc2cccc(C)c2)c1 [Compound 17]

Molecule: N-(2-(morpholinomethyl)phenyl)-L-glutamine [Compound 2]
improvement of activity against ASCT2 compared to GPNA [1]: three-fold improved activity

Molecule: N[C@@H](COC(=O)c1ccc(-c2ccccc2)cc1)C(=O)O [Compound 3, O-(4-phenylbenzoyl)-L-serine]
Ki [3]: 30 µM
